Earlier results in patent publication US20130108982A1, “Reshapable Device for Fixation at a Dental Site” (COLLDENT Y.A. LTD., priority 2007, published 2013).

Legend:
[1] = test system: bacteria

| SMILES | antibacterial activity [1] | acute lethal dose of fluoride (F) (acute) [mg F/Kg body weight] | chronic toxicity (chronic) [mg F/Kg] |
| --- | --- | --- | --- |
| [F][Sn][F] [stannous fluoride] | has shown antibacterial activity |  |  |
| F [fluoride] |  | 33 | 0.1 |
